Data on 11 compounds can be found in PubChem BioAssay (NCI).

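Compound exposure: 48 hours, 5 concentrations, 96-well plates. TGI: concentration producing complete growth inhibition.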

Some test systems named below: DLD-1 colon; DMS 273 small cell lung; KM20L2 colon; LXFL 529 NSCLC; M19-MEL melanoma; SNB-78 CNS; DMS 114 small cell lung; HOP-18 NSCLC; XF 498 CNS; RXF-631 renal.
What all share (assay): DTP human tumour cell line panel, 48 h

Usually TGI stands for the concentration giving total growth inhibition. A higher TGI goes with less potent growth arrest. Consider `COc1ccc(CNC2=C(NC(C)=O)C(=O)c3ccccc3C2=O)cc1`, for which the TGI in the assay on DLD-1 colon is 22.8 µM; in the assay with DMS 273 small cell lung, greater than 50 µM; in the assay with KM20L2 colon it was greater than 50 µM; with LXFL 529 NSCLC, 14.9 µM; in the assay with M19-MEL melanoma it was 17.4 µM; with SNB-78 CNS, 40.6 µM.

As for `O=C(NCc1ccccc1)c1cc2cc(O)c(O)cc2cn1`, the total growth inhibition concentration (TGI) was greater than 100 µM in the assay with DLD-1 colon; 24 µM in the assay on DMS 114 small cell lung; 23.2 µM in the assay on DMS 273 small cell lung; 41.4 µM in the assay on HOP-18 NSCLC; 84.6 µM with KM20L2 colon; greater than 100 µM in the assay on LXFL 529 NSCLC. Further, the TGI with M19-MEL melanoma was 77.3 µM; with SNB-78 CNS it was greater than 100 µM; in the assay on XF 498 CNS it was 90.3 µM.

Regarding `O=C(O)C(Cc1c[nH]c2ccccc12)N=Cc1nc(-c2ccccc2)oc1O` (stereo not given), the TGI in the assay with DLD-1 colon, in the assay with DMS 114 small cell lung, in the assay with DMS 273 small cell lung, with KM20L2 colon, in the assay on LXFL 529 NSCLC and in the assay with M19-MEL melanoma was greater than 100 µM in each case. For the same compound, the TGI with SNB-78 CNS and in the assay with XF 498 CNS was greater than 100 µM in each case.

With `CC(=O)Nc1ccc(C(=O)NN2C(=O)C(Cl)C2c2cc(Br)ccc2O)cc1` (stereo not given), the TGI is greater than 100 µM with DLD-1 colon, 62 µM in the assay with HOP-18 NSCLC, greater than 100 µM in the assay with LXFL 529 NSCLC and 33.7 µM in the assay with M19-MEL melanoma.

As to `COc1ccc(NC(=O)C(=O)C2CNC(=O)NC2=O)c(OC)c1` (stereo not given), the TGI in the assay with DLD-1 colon, with DMS 114 small cell lung, in the assay on DMS 273 small cell lung, with HOP-18 NSCLC, with KM20L2 colon and in the assay with LXFL 529 NSCLC was greater than 100 µM each time. The TGI with SNB-78 CNS and in the assay with XF 498 CNS was greater than 100 µM each time.

Consider `Cc1ccc([N+](=O)[O-])cc1NC(=O)C(=O)Cc1occc(=O)c1O`, for which the TGI in the assay on DLD-1 colon, in the assay with DMS 114 small cell lung, with HOP-18 NSCLC, in the assay with KM20L2 colon, in the assay on M19-MEL melanoma and in the assay on XF 498 CNS was greater than 100 µM each time.

With `CCOC(=O)C(Cc1ccccc1)NC(=O)c1ccc(N=NN(C)C)cc1` (stereo not given), the TGI in the assay with DLD-1 colon, with DMS 114 small cell lung, with DMS 273 small cell lung, in the assay on LXFL 529 NSCLC and with M19-MEL melanoma was greater than 100 µM each time.

As to `C=CCNC(=S)N1c2ccccc2NC(=O)CC1C` (stereo not given), the TGI in the assay with DMS 114 small cell lung, with DMS 273 small cell lung, in the assay with KM20L2 colon, in the assay on LXFL 529 NSCLC, with M19-MEL melanoma and in the assay on SNB-78 CNS was greater than 100 µM in each case. Further, the TGI in the assay with XF 498 CNS is greater than 100 µM.

As for `COC(=O)N/N=C(/CCN1CCCC1)CC(c1ccccc1)c1c(O)c2ccccc2oc1=O` (stereo not given), the TGI in the assay with DLD-1 colon, in the assay with DMS 273 small cell lung, in the assay on HOP-18 NSCLC, in the assay on KM20L2 colon, with LXFL 529 NSCLC and in the assay with M19-MEL melanoma was greater than 100 µM in each case. Further, the TGI in the assay on SNB-78 CNS and in the assay on XF 498 CNS was greater than 100 µM throughout.

Consider `O=C1CCCC2=C(N1)C(=O)C=CC2=O`, for which the TGI with DLD-1 colon was greater than 100 µM; in the assay on DMS 114 small cell lung it was greater than 56.5 µM; in the assay on DMS 273 small cell lung, greater than 100 µM; in the assay on HOP-18 NSCLC, greater than 100 µM; with KM20L2 colon it was greater than 100 µM; in the assay on LXFL 529 NSCLC it was greater than 100 µM. The TGI in the assay on M19-MEL melanoma, in the assay with RXF-631 renal, in the assay on SNB-78 CNS and in the assay with XF 498 CNS was greater than 100 µM in each case.

For the compound `COC1C=CC(C(=O)[N+]2=Cc3[nH]c4ccccc4c3CC2)O1` (stereo not given), the TGI in the assay on DLD-1 colon, in the assay on DMS 114 small cell lung, with DMS 273 small cell lung, in the assay on HOP-18 NSCLC, in the assay with KM20L2 colon and with LXFL 529 NSCLC was greater than 100 µM in each case. The TGI with M19-MEL melanoma, in the assay with RXF-631 renal and in the assay on SNB-78 CNS was greater than 100 µM each time.
